Data published in ChEMBL document CHEMBL1926527, “Pharmacophore insights into rpoB gene mutations in Mycobacterium tuberculosis rifampicin resistant isolates” (2012).
Values after ≈ are worked out from the molar mass of the structure shown.

Columns and labels:
Type in all cases: functional
[1] = system: Mycobacterium tuberculosis; assay: Antimycobacterial activity against Mycobacterium tuberculosis isolate 80,014 expressing rpoB Arg529Lys and Leu530Met mutant gene by resazurin microtiter assay
[2] = system: Mycobacterium tuberculosis; assay: Antimycobacterial activity against Mycobacterium tuberculosis isolate 364 expressing rpoB Ser522Leu mutant gene by resazurin microtiter assay
[3] = system: Mycobacterium tuberculosis; assay: Antimycobacterial activity against Mycobacterium tuberculosis isolate 309 expressing rpoB His526Arg mutant gene by resazurin microtiter assay
[4] = system: Mycobacterium tuberculosis; assay: Antimycobacterial activity against Mycobacterium tuberculosis isolate 307 expressing rpoB Ser531Leu mutant gene by resazurin microtiter assay
[5] = system: Mycobacterium tuberculosis; assay: Antimycobacterial activity against Mycobacterium tuberculosis isolate 363 expressing rpoB Asp516Val mutant gene by resazurin microtiter assay
[6] = system: Mycobacterium tuberculosis; assay: Antimycobacterial activity against Mycobacterium tuberculosis isolate 344 expressing rpoB Ser522Leu mutant gene by resazurin microtiter assay
[7] = system: Mycobacterium tuberculosis; assay: Antimycobacterial activity against Mycobacterium tuberculosis isolate 311 expressing rpoB mutant gene by resazurin microtiter assay
[8] = system: Mycobacterium tuberculosis; assay: Antimycobacterial activity against multidrug-resistant Mycobacterium tuberculosis clinical isolate obtained from tuberculosis patient infected in BALB/c mouse assessed as decrease in bacterial burden in lung at 5 mg/kg, po administered daily for 2 months measured after 1 month relative to untreated control
[9] = system: Mycobacterium tuberculosis; assay: Antimycobacterial activity against Mycobacterium tuberculosis isolate 343 expressing rpoB Asp516Val mutant gene by resazurin microtiter assay
[10] = system: Mycobacterium tuberculosis; assay: Antimycobacterial activity against Mycobacterium tuberculosis isolate 352 expressing rpoB Asp516Leu and Phe514Phe double mutant gene by resazurin microtiter assay
[11] = system: Mycobacterium tuberculosis; assay: Antimycobacterial activity against multidrug-resistant Mycobacterium tuberculosis clinical isolate obtained from tuberculosis patient infected in BALB/c mouse assessed as decrease in bacterial burden in lung at 5 mg/kg, po administered daily for 2 months measured after 2 months; set-up: scale not given: the % may be the effect or the level left
[12] = system: Mycobacterium tuberculosis; assay: Antimycobacterial activity against Mycobacterium tuberculosis isolate 308 expressing rpoB His526Asp mutant gene by resazurin microtiter assay
[13] = system: Mycobacterium tuberculosis; assay: Antimycobacterial activity against Mycobacterium tuberculosis isolate 349 expressing rpoB mutant gene by resazurin microtiter assay
[14] = system: Mycobacterium tuberculosis; assay: Antimycobacterial activity against multidrug-resistant Mycobacterium tuberculosis clinical isolate obtained from tuberculosis patient infected in BALB/c mouse assessed as decrease in surface area affected by pneumonia in lung at 5 mg/kg, po administered daily for 2 months measured after 2 months; set-up: scale not given: the % may be the effect or the level left

Row | Structure (SMILES) | MIC [1] [mg/L] | MIC [2] [mg/L] | MIC [3] [mg/L] | MIC [4] [mg/L] | MIC [5] [mg/L] | MIC [6] [mg/L] | MIC [7] [mg/L] | fold change (FC) [8] | MIC [9] [mg/L] | MIC [10] [mg/L] | Activity [11] [%] | MIC [12] [mg/L] | MIC [13] [mg/L] | Activity [14] [%]
1 | CO[C@H]1/C=C/O[C@@]2(C)Oc3c(C)c(O)c4c(c3C2=O)C2=NC3(CCN(CC(C)C)CC3)N(C(C)=O)C2=C(NC(=O)/C(C)=C\C=C\[C@H](C)[C@H](O)[C@@H](C)[C@@H](O)[C@@H](C)[C@H](OC(C)=O)[C@@H]1C)C4=O | 0.25 (≈ 0.281 µM) | 0.25 (≈ 0.281 µM) | 0.25 (≈ 0.281 µM) | 2 (≈ 2.25 µM) | 0.06 (≈ 0.0675 µM) | 0.06 (≈ 0.0675 µM) | >2 | >3 | >2 | 1 (≈ 1.12 µM) | 50 | >2 | 2 (≈ 2.25 µM) | 30
2 | CO[C@H]1/C=C/O[C@@]2(C)Oc3c(C)c(O)c4c(c3C2=O)C2=NC3(CCN(CC(C)C)CC3)NC2=C(NC(=O)/C(C)=C\C=C\[C@H](C)[C@H](O)[C@@H](C)[C@@H](O)[C@@H](C)[C@H](O)[C@@H]1C)C4=O | 1 (≈ 1.24 µM) | >2 | 0.25 (≈ 0.311 µM) | >2 | 1 (≈ 1.24 µM) | 2 (≈ 2.48 µM) | >2 | – | >2 | 0.12 (≈ 0.149 µM) | – | >2 | >2 | –
3 | CCCCCCCCCCCCCCCC(=O)N1C2=C3NC(=O)/C(C)=C\C=C\[C@H](C)[C@H](O)[C@@H](C)[C@@H](O)[C@@H](C)[C@H](OC(C)=O)[C@H](C)[C@@H](OC)/C=C/O[C@@]4(C)Oc5c(C)c(O)c(c(c5C4=O)C2=NC12CCN(CC(C)C)CC2)C3=O | 2 (≈ 1.84 µM) | >2 | >2 | >2 | >2 | >2 | >2 | – | >2 | >2 | – | >2 | >2 | –
4 | C=CCCCCCCCCC(=O)N1C2=C3NC(=O)/C(C)=C\C=C\[C@H](C)[C@H](O)[C@@H](C)[C@@H](O)[C@@H](C)[C@H](OC(C)=O)[C@H](C)[C@@H](OC)/C=C/O[C@@]4(C)Oc5c(C)c(O)c(c(c5C4=O)C2=NC12CCN(CC(C)C)CC2)C3=O | 0.5 (≈ 0.493 µM) | 2 (≈ 1.97 µM) | 1 (≈ 0.987 µM) | >2 | 0.25 (≈ 0.247 µM) | 0.5 (≈ 0.493 µM) | >2 | >3 | 2 (≈ 1.97 µM) | 0.25 (≈ 0.247 µM) | 50 | >2 | >2 | 15
5 | CO[C@H]1/C=C/O[C@@]2(C)Oc3c(C)c(O)c4c(c3[C@H]2O)C2=NC3(CCN(CC(C)C)CC3)NC2=C(NC(=O)/C(C)=C\C=C\[C@H](C)[C@H](O)[C@@H](C)[C@@H](O)[C@@H](C)[C@H](O)[C@@H]1C)C4=O | 2 (≈ 2.48 µM) | >2 | 2 (≈ 2.48 µM) | >2 | >2 | >2 | 2 (≈ 2.48 µM) | – | >2 | 0.5 (≈ 0.62 µM) | – | >2 | >2 | –
6 | CO[C@H]1/C=C/O[C@@]2(C)Oc3c(C)c(O)c4c(c3[C@H]2O)C2=NC3(CCN(CC(C)C)CC3)N(C(C)=O)C2=C(NC(=O)/C(C)=C\C=C\[C@H](C)[C@H](O)[C@@H](C)[C@@H](O)[C@@H](C)[C@H](OC(C)=O)[C@@H]1C)C4=O | 0.5 (≈ 0.561 µM) | >2 | 2 (≈ 2.24 µM) | >2 | 0.5 (≈ 0.561 µM) | 0.5 (≈ 0.561 µM) | >2 | – | >2 | >2 | – | >2 | >2 | –
7 | CO[C@H]1/C=C/O[C@@]2(C)Oc3c(C)c(O)c4c(c3C2=O)C2=NC3(CCN(CC(C)C)CC3)NC2=C(NC(=O)/C(C)=C\C=C\[C@H](C)[C@H](O)[C@@H](C)[C@@H](O)[C@@H](C)[C@H](OC(C)=O)[C@@H]1C)C4=O [RIFABUTIN] | 0.12 (≈ 0.142 µM) | 0.25 (≈ 0.295 µM) | 0.12 (≈ 0.142 µM) | 2 (≈ 2.36 µM) | 0.06 (≈ 0.0708 µM) | 0.06 (≈ 0.0708 µM) | 2 (≈ 2.36 µM) | – | 1 (≈ 1.18 µM) | <0.06 | – | >2 | 1 (≈ 1.18 µM) | –
8 | CO[C@H]1/C=C/O[C@@]2(C)Oc3c(C)c(O)c4c(O)c(c(/C=N/N5CCN(C)CC5)c(O)c4c3C2=O)NC(=O)/C(C)=C\C=C\[C@H](C)[C@H](O)[C@@H](C)[C@@H](O)[C@@H](C)[C@H](OC(C)=O)[C@@H]1C [RIFAMPIN] | 2 (≈ 2.43 µM) | >2 | 0.06 (≈ 0.0729 µM) | >2 | >2 | >2 | >2 | – | >2 | >2 | – | >2 | >2 | –
